The term GI50 denotes the concentration giving 50% growth inhibition. A word on the IC50: it is the concentration that inhibits the measured activity by half.

The results in this text go back to patent US20130090355A1, “CHEMICAL AGENTS FOR THE PREVENTION OF INHIBITION OR TUMOR METASTASIS” (ALBERT EINSTEIN COLLEGE OF MEDICINE OF YESHIVA UNIVERSITY, priority 2010, published 2013).

One data set concerns the target C3R/C81S/C86S S100A4 (Homo sapiens, UniProt P26447, C3R/C81S/C86S). The experiment in a line: Myosin-IIA binding to C3R/C81S/C86S S100A4.
The test system of data set [1] is MDA-MB-231 cells. The experiment in a line: MTT cell proliferation / growth inhibition assay. The settings on record: for MTT Assay death: MDA-MB-231, 24 hrs.
Procedure: However, all compounds were tested in a cell proliferation assay to identify cytotoxic compounds and determine compound concentrations that can be used to examine effects on motility and invasion.
EC50 values were determined from sixteen concentration titrations. Growth inhibition of MDA-MB-231 cells, which express high levels of S100A4, was examined in a 96-well plate MTT assay at eight drug concentrations after treatment for 24 hrs.
The target in data set [2] is S100A4/myosin-IIA interaction (Homo sapiens, UniProt P26447). Briefly: Fluorescence polarization assay monitoring the S100A4/myosin-IIA interaction with FITC-MIIA^1908-1923 peptide. The format is binding. An excerpt:
An agent that prevents or inhibits the interaction between S100A4 and myosin-IIA may be determined by any method known in the art. For example, a fluorescence polarization assay that monitors the S100A4/myosin-IIA interaction using a fluorescein-tagged myosin-IIA peptide that comprises the minimal S100A4 binding site may be used as described in U.S. application Ser. No. 11/989,901, herein included in full.
A fluorescence polarization assay was developed that monitors the S100A4/myosin-IIA interaction using a fluorescein-tagged myosin-IIA peptide that comprises the minimal S100A4 binding site (FITC-MIIA^1908-1923) (21, 24). […] In collaboration with the Rapid Access to NCI Discovery Resources (R•A•N•D) program, the fluorescence polarization assay was used to screen the LOPAC (1280 compounds) and Maybridge (14,320 compounds) chemical libraries to identify compounds that disrupt the S100A4/myosin-IIA interaction.
EC50 values were determined from sixteen concentration titrations.
Background: Polarisation of emitted light reports the rotation of a fluorescent probe.

Data set [3] has as its system MDA-MB-231 cells. The experiment in a line: Boyden chamber assay of serum-stimulated chemotaxis. The settings on record: Homo sapiens; MDA-MB-231 chemotaxis towards serum (5% FBS), 24 hr; read-out: EC50 inhibition of serum-stimulated migration. It is filed as cell-based. The protocol: FIG. 4. Boyden chamber assay examining the effects of lead compounds on MDA-MB-231 chemotaxis. Cells were serum starved for 5 hrs and plated into the upper chamber of a transwell in serum-free medium. Complete medium (5% FBS) was added to the lower chamber and the cells were allowed to migrate for 24 hr. Cells that penetrated the filter were stained with DAPI and quantified by fluorescence microscopy using 10 fields per filter.
As proof-of-principle that S100A4 inhibitors affect the motile and invasive capabilities of carcinoma cells, cell migration assays examining the ability of NSC 5069 and XAX 00168 to inhibit chemotaxis of MDA-MB-231 cells towards serum in a Boyden chamber assay were initiated (FIG. 4). Both NSC 5069 and XAX 00168 inhibit serum-stimulated migration to varying extents with EC50 values of approximately 40 and 20 μM for NSC 5069 and XAX 00168, respectively.

A further data set addresses wild-type S100A4 (Homo sapiens, UniProt P26447). Briefly: Mass spectrum of wild-type S100A4 after treatment with compound (covalent modification). An excerpt: (§1) FIG. 3A-3D. Mass spectrum of wild-type S100A4 (A) and following treatment with NSC 95397 (B). Mass spectrum of C81S/C86S S100A4 (C) and following treatment with NSC 95397 (D).
The target in a further data set is C81S/C86S S100A4 (Homo sapiens, UniProt P26447, C81S/C86S). Briefly: Mass spectrum of C81S/C86S S100A4 after treatment with compound (covalent modification). The following applies: Cys81 and Cys86 substituted with serine.
From the text: as §1

The mark [4] stands for this setting: read-out: EC50 (inhibition of the S100A4/myosin-IIA interaction).
Where [5] appears, read: Table 1, sixteen concentration titrations, read-out: EC50.

Where “and” joins values, the source holds several entries; their conditions need not be identical. Equal values may be shown once. Entries after “also recorded” stand apart in the source; their conditions may differ. Read-outs that look alike come from different tables or passages of the source.

S100A4/myosin-IIA interaction, sequence (P26447 whole entry): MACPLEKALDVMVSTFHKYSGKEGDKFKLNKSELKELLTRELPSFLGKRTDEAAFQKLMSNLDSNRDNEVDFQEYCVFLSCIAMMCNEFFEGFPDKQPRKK
C81S/C86S S100A4, sequence (P26447 whole entry C81S/C86S, one chain of several): as the sequence (P26447 whole entry) above, with C81S, C86S counted along it
wild-type S100A4, sequence (P26447 whole entry): as the sequence (P26447 whole entry) above
C3R/C81S/C86S S100A4, sequence (P26447 whole entry C3R/C81S/C86S, one chain of several): as the sequence (P26447 whole entry) above, with C3R, C81S, C86S counted along it

Consider `CSCC[C@H](NC(=O)[C@H](C)NC(=O)[C@H](CC(=O)O)NC(=S)Nc1ccc2c(c1)C(=O)OC21c2ccc(O)cc2Oc2cc(O)ccc21)C(=O)N[C@@H](CC(N)=O)C(=O)N[C@@H](CCCNC(=N)N)C(=O)N[C@@H](CCC(=O)O)C(=O)N[C@H](C(=O)N[C@@H](CO)C(=O)N[C@@H](CO)C(=O)N[C@@H](CC(C)C)C(=O)N[C@@H](CCCCN)C(=O)N[C@@H](CC(N)=O)C(=O)N[C@@H](CCCCN)C(=O)N[C@@H](CC(C)C)C(=O)N[C@@H](CCCNC(=N)N)C(=O)N[C@@H](CCCNC(=N)N)C(=O)O)C(C)C` [FITC-MIIA^1908-1923], for which the myosin-IIA binding entry on C3R/C81S/C86S S100A4 is “undetectable”.
`CSc1sc(C(=O)NN)cc1-c1nc(C)cs1` [Maybridge KM03663, 5-methylsulfanyl-4-(4-methyl-1,3-thiazol-2-yl)thiophene-2-carbohydrazide]: the “MTT Assay death” value in the data set on MDA-MB-231 cells [1] (at 150 μM) is on record as 100% death at 150 μM. In addition, the EC50 in data set [2] (setting [4]) fell in the range of 38 to 46 µM.
As to `Cc1oc(-c2ccc(Cl)cc2)cc1C(=O)/C(C#N)=C/c1ccccc1` [Maybridge SP00172, 2-{[5-(4-chlorophenyl)-2-methyl-3-furyl]carbonyl}-3-phenylacrylonitrile], the “MTT Assay death” value in the data set on MDA-MB-231 cells [1] (at 50 μM) is given as 100% death at 50 μM. In addition, the EC50 in data set [2] (setting [4]) fell in the range of 38 to 46 µM.
On to `O=C1NC(=S)S/C1=C\c1cc([N+](=O)[O-])ccc1Sc1ccc(C(F)(F)F)cn1` [Maybridge XAX00168, 5-(5-nitro-2{[5-(trifluoromethyl)-2-pyridyl]thio}benzylidene)-2-thioxo-1,3-thiozolan-4-one], for which the EC50 is about 20 µM in the data set with MDA-MB-231 cells [3]; 46 µM in data set [2] (setting [5]); 38 to 46 µM and 46 µM in data set [2] (setting [4]). The compound further showed a GI50 in the data set on MDA-MB-231 cells [1] (Homo sapiens, MDA-MB-231) of 190 µM. Also, in the data set on MDA-MB-231 cells [1] (Homo sapiens, MDA-MB-231, 24 h, read-out: MTT Assay IC50), the IC50 was determined as 190 µM.
Turning to `O=C(O)CC1OCC=C2CN3CCC45C6=CC(=O)C(=O)C([N+](=O)[O-])=C6NC4C1C2CC35` (stereo not drawn) [NSC5069, Cacotheline], the EC50 in the data set with MDA-MB-231 cells [3] was about 40 µM; in data set [2] (setting [5]), 19 µM; in data set [2] (setting [4]) it was 19 µM. The “MTT Assay toxicity” value with MDA-MB-231 cells [1] (MDA-MB-231, eight drug concentrations, 24 hrs) is “did not exhibit toxicity; also recorded: no toxicity detected”.
For `O=C1C(=O)c2cc([N+](=O)[O-])ccc2-c2ccccc21` [NSC5425/ NSC23180, 2-nitrophenanthrene-9,10-dione], the “MTT Assay death” value with MDA-MB-231 cells [1] (@ 10 μM) came to 100% death @ 10 μM.
As to `O=C1c2ccccc2-c2ccccc2C1(Cl)Cl` [NSC6339/ NSC135154, 10,10-dichlorophenanthren-9-one], the “MTT Assay death” value in the data set on MDA-MB-231 cells [1] (@ 2.5 μM) worked out at 100% death @ 2.5 μM.
As to `O=C1C(=O)c2cccc([N+](=O)[O-])c2-c2ccccc21` [NSC10204, 4-nitrophenanthrene-9,10-dione], the “MTT Assay death” value in the data set on MDA-MB-231 cells [1] (at 100 μM) is recorded as 80% death at 100 μM.
Regarding `O=C1C(=O)c2ccccc2-c2ccccc21` [NSC10446/ NSC7389, Phenanthrene-9,10-dione], the “MTT Assay death” value with MDA-MB-231 cells [1] (@ 25 μM) was determined as 100% death @ 25 μM.
As for `O=C1C2=C(SCCS2)C(=O)c2ccccc21` [NSC55480, 2,3-dihydrobenzo[g][1,4]benzodithiine-5,10-dione], the “MTT Assay death” value in the data set on MDA-MB-231 cells [1] (@ 2.5 μM) came to 100% death @ 2.5 μM.
With `O=C1C(SCCO)=C(SCCO)C(=O)c2ccccc21` [NSC95397, 2,3-bis(2-hydroxyethylsulfanyl)naphthalene-1,4-dione], the “covalent modification of S100A4 (mass)” value was “modification of each monomer at two residues” at wild-type S100A4 and “prevented modification” at C81S/C86S S100A4. For the same compound, in the data set on MDA-MB-231 cells [1] (@ 2.5 μM), the “MTT Assay death” value was 100% death @ 2.5 μM. Moreover, the EC50 in data set [2] (setting [4]) amounted to 7.6 µM.
As to `O=C1C(=O)c2cc(Cl)ccc2-c2ccccc21` [NSC102363, 2-chlorophenanthrene-9,10-dione], the “MTT Assay death” value with MDA-MB-231 cells [1] (@ 10 μM) stood at 100% death @ 10 μM.
Consider `[H]/N=C1\C(=O)c2ccccc2-c2ccccc21` [NSC139152, 10-iminophenanthren-9-one], for which, in data set [2] (setting [5]), the EC50 came to 4.3 µM.
Regarding `CC(=O)c1ccc2c(c1)-c1ccccc1C(=O)C2=O` [NSC400689, 3-acetylphenanthrene-9,10-dione], the “MTT Assay death” value in the data set with MDA-MB-231 cells [1] (@ 2.5 μM) was 100% death @ 2.5 μM.
In the case of `O=Nc1c(O)c2ccccc2c2ccc([N+](=O)[O-])cc12` [NSC402968], the EC50 in data set [2] (setting [5]) was found to be 17 µM.
